Measured values as given in US20220000969A1, “COMBINATIONS OF LYSOBACTIN AND AMINOGLYCOSIDES AGAINST DISEASES CAUSED BY GRAM-POSITIVE AND GRAM-NEGATIVE BACTERIA IN NON-HUMAN ANIMALS” (Bayer Animal Health GmbH, priority 2017, published 2022).
Starred links: 1 amine or outer side, 2 acyl side, 3 side chain; linkers in the order of their positions; H or OH if unused. Positions of bridges follow the written chain, without caps; N, C: chain ends. Non-standard residues stand in square brackets, D forms with d. Residues, ends and D or L forms follow the SMILES beside them. Phe(3R-OH) = O=C([C@@H](N[*:1])[C@H](O[*:3])c1ccccc1)[*:2]; Asn(3S-OH) = NC(=O)[C@@H](O)[C@H](N)C(=O)O; Leu(3R-OH) = CC(C)[C@@H](O)[C@H](N)C(=O)O; aThr = C[C@H](O)[C@H](N)C(=O)O

How the values were obtained:
[1] = tested on: Staphylococcus aureus ATCC 29740; assay: in vitro kill kinetics of lysobactin alone in milk; format: cell-based; details: lysobactin 4-64 μg/mL, at 24 h
Method: (§1) In order to assess the ability of lysobactin to kill bacteria in milk, flasks containing different concentrations of lysobactin in store-bought full-fat milk were inoculated with 1-2×10^6 colony forming units/ml of a representative strain of either Staphyloccus aureus or Streptococcus uberis. The flasks were incubated for 24-48 hours in a shaking water bath at 35+/−2° C., and viable bacterial counts in each flask were determined at several time-points by diluting and plating samples on agar plates. A reduction of the number of viable bacteria in the initial inoculum by at least 99.9% is defined as bactericidal activity.
(§2) The kill kinetics of lysobactin against Staphylococcus aureus ATCC 29740 and Streptococcus uberis ATCC 27958 in milk were determined for concentrations of lysobactin of 4, 8, 16, 32 and 64 μg/mL. Results are depicted in FIG. 1 (CFU: colony forming units). A cidality at 24 h and 48 h, respectively, can be postulated for S. aureus and S. uberis.

[2] = tested on: Streptococcus uberis ATCC 27958; assay: in vitro kill kinetics of lysobactin alone in milk; format: cell-based; details: lysobactin 4-64 μg/mL, at 48 h
Method: as §1, §2

S. uberis = assay: resistance development during serial passaging; format: cell-based, Streptococcus uberis; details: serial passaging at sub-MIC concentrations over 33 days
Method: (§3) The appearance of MIC changes during constant exposure of bacteria to sub-MIC concentrations of lysobactin was assessed by serial passaging experiments. On the first day the MICs of S. aureus and S. uberis were assessed by microbroth dilution MIC methodology as described by the Clinical and Laboratory Standards Institute (CLSI). Each day for the following 33 consecutive days, bacteria from the well containing the highest concentrations allowing full growth were collected and used to inoculate new 96-well plates and to assess the MIC during constant exposure to lysobactin. The MIC obtained on each day was plotted over time. Rifampicin, which is known to result in quick changes of the MIC, was used as positive control.

[3] = tested on: Streptococcus uberis (ATCC 27958); assay: acute mouse mastitis model with S. uberis (example 14); format: in vivo, lactating CD-1 mice; details: paraffin formulation, 18 h after infection
Method: Twenty-three lactating CD-1 mice were experimentally infected 10-15 days after birth of the offspring with the mastitis pathogen Streptococcus uberis (ATCC 27958) on the left and right fourth mammary gland. Four hours after infection the animals were treated intrammarily with the test items. The study comprised four treatment groups with four mice each and a control group with seven mice. The mice of the treatment groups received paraffin formulations of lysobactin at 15 μg/gland or neomycin trisulfate at 1600 μg/gland, or two combinations of both with lysobactin at 15 μg plus neomycin trisulfate at 800 μg or 1600 μg per gland. Eighteen hours after infection the mice were killed and the mammary glands were removed and bacterial CFU were evaluated microbiologically.

Staphylococcus aureus [4] = assay: Staphylococcus aureus acute mouse mastitis model; format: in vivo, lactating CD-1 mice
Method: The efficacy of lysobactin (formulated in a hydrogel at pH 4.7) was tested in a Staphylococcus aureus acute mouse mastitis model established at the University of Sherbrooke, Canada (Brouillette et al, Vet. Microbiol. (2004) 4:253-262), that is hereby incorporated by reference. Both the abdominal mammary glands (L4 and R4) of lactating CD-1 mice were intramammarily infected with 100 CFU (colony forming units) of S. aureus. The mice were treated intramammarily with lysobactin four hours after infection. Each treatment group contained at least 3 mice (6 quarters), 14 hours later (18 hours after inoculation) mice were sacrificed, mammary glands were harvested and the CFU content evaluated by plating 10-fold serial dilutions of mammary gland homogenates. The CFU content was expressed as log10 count. The detection limit was 200 CFU/g of gland. Glands with less than 200 CFU/g were regarded as cleared. The efficacy of lysobactin and neomycin trisulfate, either alone or in combination, was tested in a Staphylococcus aureus acute mouse mastitis model established at the University of Sherbrooke, Canada (Brouillette et al, Vet. Microbiol. (2004) 4:253-262), as described in example 5. Samples were formulated in paraffin.

S. aureus = assay: resistance development during serial passaging; format: cell-based, Staphylococcus aureus; details: serial passaging at sub-MIC concentrations over 33 days
Method: as §3

Staphylococcus aureus [5] = assay: dairy cow udder infection model with S. aureus (example 15); format: in vivo, lactating dairy cows; details: for microbiological cure rate: miglyol based suspension, two times; for SCC recovery rate: counts below 200.000 cells per mL
Source text: Fifteen healthy lactating dairy cows were experimentally infected with the mastitis pathogen Staphylococcus aureus on all four udder quarters.
Additionally a fourth group of udder quarters received miglyol as negative control. Treatments were randomly assigned to 60 udder quarters in total. Only udder quarters that were bacteriologically positive for the challenge organism immediately prior to treatment (n=49) were eligible for assessment of microbiological and clinical cure. The diseased quarters were treated with these intramammary formulations two times with an interval of 24 hours in between. Udders were clinically examined and milk samples were taken before treatment and several times after that until three weeks after the second administration by study personnel blinded to treatment.
Milk was inspected visually for deviation in its consistency and samples were evaluated for presence of the challenge organism and for somatic cell count to confirm the diagnosis mastitis. Diseased udder quarters were considered microbiologically cured when Staphylococcus aureus found in milk samples shortly before treatment could not be isolated from any milk sample taken within the time period between the third and the twenty-first day after the second treatment. Clinical cure was achieved when the local symptoms of mastitis had completely disappeared, and recovery of somatic cell counts (SCC) as parameter of udder inflammation was attained when all counts remained below 200.000 cells per mL of milk in the period mentioned above.

E. coli P4:032 = assay: in vitro kill kinetics of combinations in milk (synergy); format: cell-based; details: after 8 h, 32 μg/ml neomycin alone
Method: The flasks were incubated for 24-48 hours in a shaking water bath at 35+/−2° C., and viable bacterial counts in each flask were determined at several time-points by diluting and plating samples on agar plates.
The kill kinetics of lysobactin and neomycin, either alone or in combination, against E. coli P4:032 in milk were determined for concentration ratio of lysobactin:neomycin of […] (256 μg/ml lysobactin and 32 μg/ml neomycin).

[6] = Day 3 after second treatment, lysobactin 50 mg
[7] = Day 21 after second treatment, lysobactin 50 mg
[8] = Day 3 after second treatment, neomycin trisulfate 400 mg
[9] = Day 21 after second treatment, neomycin trisulfate 400 mg

Compound: CC[C@H](C)[C@@H]1NC(=O)[C@@H](CCCNC(=N)N)NC(=O)[C@H](CC(C)C)NC(=O)[C@H]([C@H](O)C(C)C)NC(=O)[C@@H](NC(=O)[C@H](CC(C)C)NC(=O)[C@H](N)CC(C)C)[C@@H](c2ccccc2)OC(=O)[C@H](CO)NC(=O)[C@H]([C@H](O)C(N)=O)NC(=O)CNC(=O)[C@H]([C@H](C)O)NC1=O [lysobactin] (H-[dL]L[Phe(3R-OH)][Leu(3R-OH)]L[dR]I[aThr]G[Asn(3S-OH)]S; ester 3-C)
- cidality (reduction of viable bacteria by at least 99.9%) [1]: cidality
- cidality (reduction of viable bacteria by at least 99.9%) [2]: cidality
- MIC change during constant exposure (S. uberis): remain constant
- reduction of mean CFU content ([3]; 15 μg lysobactin per gland): ca. 2.6 log10
- reduction of median CFU content (Staphylococcus aureus [4]; 50 μg lysobactin intramammary, formulated in paraffin): ca. 2.7 log10
- reduction of median CFU content (Staphylococcus aureus [4]; 50 μg lysobactin intramammary, hydrogel pH 4.7, 4 h after infection, glands 18 h after inoculation): ca. 4 log10
- elimination of infection from glands (Staphylococcus aureus [4]; 400 μg lysobactin intramammary, hydrogel pH 4.7, cleared = less than 200 CFU/g): eliminates the infection from all infected glands
- MIC change during constant exposure (S. aureus): remain constant
- local clinical cure rate (Staphylococcus aureus [5]; [6]): 71%
- microbiological cure rate (Staphylococcus aureus [5]; [6]): 71%
- SCC recovery rate (Staphylococcus aureus [5]; [6]): 35%
- local clinical cure rate (Staphylococcus aureus [5]; [7]): 71%
- microbiological cure rate (Staphylococcus aureus [5]; [7]): 14%
- SCC recovery rate (Staphylococcus aureus [5]; [7]): 36%

Compound: neomycin
- bacterial cell count (E. coli P4:032): below the detection limit

Compound: NC[C@@H]1O[C@H](O[C@@H]2[C@@H](CO)OC(O[C@@H]3[C@@H](O)[C@H](N)C[C@H](N)[C@H]3OC3O[C@H](CN)[C@@H](O)[C@H](O)[C@H]3N)[C@@H]2O)[C@H](N)[C@@H](O)[C@@H]1O (some centres unmarked) [neomycin trisulfate, reference compound]
- reduction of mean CFU content ([3]; 1600 μg neomycin trisulfate per gland): ~1.5 log10
- reduction of median CFU content (Staphylococcus aureus [4]; 1600 μg neomycin trisulfate intramammary, formulated in paraffin): ~2.5 log10
- local clinical cure rate (Staphylococcus aureus [5]; [8]): 67%
- microbiological cure rate (Staphylococcus aureus [5]; [8]): 100%
- SCC recovery rate (Staphylococcus aureus [5]; [8]): 17%
- local clinical cure rate (Staphylococcus aureus [5]; [9]): 100%
- microbiological cure rate (Staphylococcus aureus [5]; [9]): 42%
- SCC recovery rate (Staphylococcus aureus [5]; [9]): 50%
